# Experimental data reported in ChEMBL document CHEMBL4819050, “Discovery of a novel series of guanidinebenzoates as gut-restricted enteropeptidase and trypsin dual inhibitors for the treatment of metabolic syndrome” (Bioorg Med Chem Lett, 2021).
# Tests used:
# Parameters in all cases: scale not given: the % may be the effect or the level left
# [1] = target: Enteropeptidase (Homo sapiens) (UniProt P98073); experiment: Inhibition of full length recombinant human EP expressed in CHO cells assessed as protease activity using […] as substrate at 10 uM by fluorescence assay relative to control
# [2] = target: Enteropeptidase (Homo sapiens) (UniProt P98073); experiment: Inhibition of full length recombinant human EP expressed in CHO cells assessed as protease activity using […] as substrate at 1 uM by fluorescence assay relative to control
# [3] = target: Enteropeptidase (Homo sapiens) (UniProt P98073); experiment: Inhibition of full length recombinant human EP expressed in CHO cells assessed as protease activity using […] as substrate at 0.1 uM by fluorescence assay relative to control
# Bos taurus [4] = organism: Bos taurus; experiment: Inhibition of bovine trypsin assessed as protease activity using D-CHA-AR-AMC as substrate at 0.1 uM by fluorescence assay relative to control
# Bos taurus [5] = organism: Bos taurus; experiment: Inhibition of bovine trypsin assessed as protease activity using D-CHA-AR-AMC as substrate at 10 uM by fluorescence assay relative to control
# Bos taurus [6] = organism: Bos taurus; experiment: Inhibition of bovine trypsin assessed as protease activity using D-CHA-AR-AMC as substrate at 1 uM by fluorescence assay relative to control
# Sequence of Enteropeptidase (Homo sapiens) (P98073 2-784 limits assumed): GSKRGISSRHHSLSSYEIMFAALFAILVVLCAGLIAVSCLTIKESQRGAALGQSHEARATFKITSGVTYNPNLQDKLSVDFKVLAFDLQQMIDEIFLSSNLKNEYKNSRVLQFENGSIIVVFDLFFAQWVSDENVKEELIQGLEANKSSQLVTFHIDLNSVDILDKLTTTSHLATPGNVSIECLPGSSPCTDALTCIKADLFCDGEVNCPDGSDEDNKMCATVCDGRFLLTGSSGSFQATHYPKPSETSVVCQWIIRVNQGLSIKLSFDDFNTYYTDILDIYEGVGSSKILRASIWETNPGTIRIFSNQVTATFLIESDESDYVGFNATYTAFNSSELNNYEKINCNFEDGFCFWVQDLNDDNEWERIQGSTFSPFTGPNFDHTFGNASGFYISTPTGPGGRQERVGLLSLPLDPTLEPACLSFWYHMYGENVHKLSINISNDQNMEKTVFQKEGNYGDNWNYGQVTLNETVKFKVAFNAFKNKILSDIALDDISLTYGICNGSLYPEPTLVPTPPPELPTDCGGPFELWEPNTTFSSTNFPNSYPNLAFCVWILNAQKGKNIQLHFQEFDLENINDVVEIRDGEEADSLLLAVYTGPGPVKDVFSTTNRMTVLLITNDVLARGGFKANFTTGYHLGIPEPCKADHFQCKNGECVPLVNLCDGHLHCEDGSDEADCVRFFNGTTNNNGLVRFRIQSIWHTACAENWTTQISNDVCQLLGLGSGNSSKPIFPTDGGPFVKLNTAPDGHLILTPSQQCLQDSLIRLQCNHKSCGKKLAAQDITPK
# Sequence of Enteropeptidase (Homo sapiens) (P98073 785-1019 limits assumed): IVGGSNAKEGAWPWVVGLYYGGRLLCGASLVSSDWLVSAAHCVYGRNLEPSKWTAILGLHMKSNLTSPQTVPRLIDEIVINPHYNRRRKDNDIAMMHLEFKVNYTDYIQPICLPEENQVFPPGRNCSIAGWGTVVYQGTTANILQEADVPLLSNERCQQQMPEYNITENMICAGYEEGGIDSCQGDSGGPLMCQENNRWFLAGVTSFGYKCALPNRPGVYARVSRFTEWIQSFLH
Structure (SMILES),Activity [1] [%],Activity [2] [%],Activity [3] [%],Activity (Bos taurus [4]) [%],Activity (Bos taurus [5]) [%],Activity (Bos taurus [6]) [%]
N=C(N)Nc1ccc(C(=O)Oc2ccc(CC(=O)O)n3ncnc23)c(Cl)c1,100,100,81.2,43.5,99.9,97.6
CNC(=N)Nc1ccc(C(=O)Oc2ccc(CC(=O)O)n3ncnc23)cc1,97.9,80.1,15.3,9.6,97.7,57.1
N=C(N)Nc1ccc(C(=O)Oc2ccc(CC(=O)O)n3ncnc23)s1,100,100,82,93.8,99.8,99.9
Cc1cc(C(=O)Oc2ccc(CC(=O)O)n3ncnc23)ccc1NC(=N)N,36.7,6.3,1.3,0,35.5,8.4
O=C(O)Cc1ccc(OC(=O)c2ccc(C3=NCCN3)cc2)c2ncnn12,58.6,16.9,4.69,-0.36,21.6,2.66
CC(=N)Nc1ccc(C(=O)Oc2ccc(CC(=O)O)n3ncnc23)cc1,100,99.6,47.8,11.5,99.7,68
N=C(N)Nc1ccc(C(=O)Oc2ccc(CC(=O)O)n3ncnc23)c(F)c1,100,100,99.4,97.2,100,99.7
N=C(N)Nc1ccc(C(=O)Oc2ccc(C3OC(=O)NC3=O)n3ncnc23)cc1 (stereo not drawn),100,101,73,99.8,100,100
N#CNC(=N)c1ccc(C(=O)Oc2ccc(CC(=O)O)n3ncnc23)cc1,13.6,1.9,-1.6,-2.06,35.8,2.46
O=C(O)Cc1ccc(OC(=O)c2ccc(NC3=NCCCN3)cc2)c2ncnn12,-10.4,-2,1.03,2.91,-7.38,-3.49
N#Cc1cc(C(=O)Oc2ccc(CC(=O)O)n3ncnc23)ccc1NC(=N)N,32.1,-6.26,-3.01,0.95,29.9,12.3

# Next, values leading:
Activity [1] [%],Activity [2] [%],Activity [3] [%],Activity (Bos taurus [4]) [%],Activity (Bos taurus [5]) [%],Activity (Bos taurus [6]) [%],Structure (SMILES)
52.3,11.3,-0.79,5.66,66.5,8.66,CNC(=N)c1ccc(C(=O)Oc2ccc(CC(=O)O)n3ncnc23)cc1
-2.75,-2.47,-0.28,0.21,-7.45,-2.97,O=C(O)Cc1ccc(OC(=O)c2ccc(NC3=NCCN3)cc2)c2ncnn12
93.2,57.9,10.5,10.9,93,58.3,N=C1NCCN1c1ccc(C(=O)Oc2ccc(CC(=O)O)n3ncnc23)cc1
101,59.9,10.3,9.45,99.7,49,Cc1cc(NC(=N)N)ccc1C(=O)Oc1ccc(CC(=O)O)n2ncnc12
101,92.1,34.3,12.4,100,73.1,N=C(N)Nc1ccc(C(=O)Oc2ccc(CC(=O)O)n3ncnc23)cc1O
100,98.8,36.3,14.6,99.9,80,N=C(N)Nc1ccc(C(=O)Oc2ccc(CC(=O)O)n3ncnc23)c2ccoc12
100,99.5,92.1,96.5,100,100,N=C(N)Nc1ncc(C(=O)Oc2ccc(CC(=O)O)n3ncnc23)cn1
